For one data set, the system named is CDK12/13. Kind of data set: Immunoblotting of CDK12/13 in MDA-MB-231 cells (time course, negative control, series comparison). Particulars: 1 μM. Format: cell-based, human. How it is done:
To further characterize the compound, we determined the half-degradation concentration (DC50) values of ZLC491 in MDA-MB-231 cells. […] We also treated MDA-MB-231 cells with 1 μM ZLC491 at various time points.
(A) Immunoblotting of CDK12 and CDK13 in MDA-MB-231 cells treated with increasing concentrations of ZLC491 for 15 h (left). Percent remaining CDK12 and CDK13 proteins were plotted for DC50 determination (right). Protein levels were quantified using ImageJ and normalized to corresponding α-tubulin, then plotted using Graphpad Prism 8.0. The data were representative of three independent experiments; (B) immunoblotting of CDK12 and CDK13 proteins in MDA-MB-231 cells treated with ZLC491 for various time points; immunoblotting of CDK12 and CDK13 in HCC38 (C) and MDA-MB-436 (D) cells treated with increasing concentrations of ZLC491 for 15 h. α-Tubulin was used as a loading control. TEXT PRINTED IN THE PICTURE: (A) ZLC491: MDA-MB-231: CDK12 DC50 = 0.032μM; MDA-MB-231: CDK13 DC50 = 0.028μM DOUBTS OF THE COPYIST ABOUT THIS PICTURE: ZLC491, CDK12 DC50: 0.032 read from small print, the digits 3 and 2 are uncertain / ZLC491, CDK13 DC50: 0.028 read from small print, the last digit may be 8, 6 or 3
Figure 4 ZLC491 induced CDK12/13 degradation in a CRBN- and proteasome-dependent fashion. […]
Background: Immunoblotting shows a protein as a band on a membrane.

The test system of another data set is CCNK. Nature of the data set: Immunoblotting of CCNK in MDA-MB-231 cells. Particulars: MDA-MB-231, increasing concentrations, 15 h. The format is cell-based, human. The method, then: The global proteomic selectivity of ZLC491 was investigated by using the tandem mass tag (TMT) labeled mass-spectrometry. […] CDK13 was not detected in either degrader treatment groups or DMSO control groups, likely due to its insufficient cellular expression for mass spectrometry detection.
Generally, the tested cells were washed by ice-cold PBS buffer (Gibco) and lysed with an SDS lysis buffer (62.5 mM Tris, 2% w/v SDS, 10 glycerol, 50 mM DTT, 0.01% w/v bromophenol blue) on ice, after which the protein lysate samples were collected to 1.5 mL microcentrifuge tubes and treated with ultrasonic for 10 s, following with a 100 °C incubation for 10 min and a 4 °C centrifugation of 12000 rpm for 10 min. An equal amount of protein was loaded to 4–8% Bis-Tris gels and underwent an SDS-PAGE electrophoresis at 55V for 30 min and 95V for 90 min. Proteins on gels were then transferred to a polyvinylidene difluoride (PVDF) membrane (Bio-Rad) with a wet electro transfer system (Bio-Rad). The PVDF membrane was cut into bands and incubated in a blocking reagent (5% defatted milk powder dissolved in TBST) at room temperature for 1–2 h. Incubate membrane and primary antibody (at the appropriate dilution and diluent as recommended in the product webpage) at 4 °C for 12–14 h, followed with three times washes by TBST. […]

The next data set in a line: Pharmacokinetics in rats. Format: in vivo, rat. The settings on record: male, Sprague-Dawley, rat, plasma. The method, then:
We further evaluated the in vivo PK properties of compound ZLC491 and the counterpart 4m (without F substitution) in rats, and the results were summarized in Table 2. […] The PK profiles of F-containing compound ZLC491 were further improved.
The pharmacokinetic investigation was taken by Shanghai Medicilon Inc. (Project Code: 26048-23001-NG). Sprague–Dawley male rats (Specific pathogen Free (SPF), provided by Zhejiang Vital River Laboratory Animal Technology Co. Ltd.) were dosed with ZLC491 solution formulation (5% DMSO, 10% Solutol, 85% normal saline, 2.5 mg/kg for intravenous dose, 10 mg/kg for oral dose) or compound 4m solution formulation (5% DMSO, 10% Solutol, 85% (20%HP-β-CD), 2.5 mg/kg for intravenous dose, 10 mg/kg for oral dose). Blood samples were collected at 0.083, 0.25, 0.5, 1, 2, 4, 8, and 24 h in intravenous administration, 0.25, 0.5, 1, 2, 4, 6, 8, and 24 h in oral administration. The blood samples were collected from sets of three rats at each time point in labeled microcentrifuge tubes containing heparin sodium as an anticoagulant. Plasma samples were separated by centrifugation (2–8 °C, 6800g for 6 min) within 1 h and stored below −80 °C until bioanalysis. All samples were processed for analysis by precipitation using acetonitrile and analyzed with a partially validated LC/MS/MS method. Pharmacokinetic parameters were calculated using the noncompartmental analysis tool of WinNonlin Enterprise software.

Structures are written as SMILES.

In the case of `N#Cc1ccc(N[C@H]2CC[C@H](N(C(=O)NCc3ccccc3)c3ccc(N4CCN(C5CCN(c6cc7c(cc6F)C(=O)N(C6CCC(=O)NC6=O)C7=O)CC5)CC4)cc3)CC2)nc1` (stereo partly shown) [ZLC491, 3-Benzyl-1-((1r,4r)-4-((5-cyanopyridin-2-yl)amino)cyclohexyl)-1-(4-(4-(1-(2-(2,6-dioxopiperidin-3-yl)-6-fluoro-1,3-dioxoisoindolin-5-yl)piperidin-4-yl)piperazin-1-yl)phenyl)urea], the “time at which significant reduction of CDK12/13 is observed” value in the data set with CDK12/13 was no more than 4 h. Also, the “CCNK degradation by Western blotting” value in the data set on CCNK is “dose-dependently degraded”. In “Pharmacokinetics in rats” (iv, i.v. 2.5 mg/kg), the AUC(0-t) at 24 h came out at 6820 ng·h/mL, the Cmax at 24 h was found to be 4590 ng/mL, the clearance at 24 h worked out at 6.38 mL/min/kg and the half-life at 24 h was 2.46 h. In the data set “Pharmacokinetics in rats” (oral bioavailability, p.o. 10 mg/kg vs i.v. 2.5 mg/kg), this compound returned a bioavailability at 24 h of 46.8%. Further, in the data set “Pharmacokinetics in rats” (po, p.o. 10 mg/kg), the AUC(0-t) at 24 h was 12800 ng·h/mL, the highest level (Cmax at 24 h) was 1310 ng/mL and the half-life at 24 h was 2.92 h.

The AUC(0-t) is exposure summed from dosing to a finite time, without extrapolation to infinity. Usually Cmax stands for the peak of the concentration-time curve. One may read the clearance as a measure of how efficiently the substance is removed, as volume per time. Read a high clearance as efficient removal. The half-life is how long it takes for the measured level to halve. High values mean slow loss, low ones fast loss. Broadly, the bioavailability is dose-corrected exposure relative to a reference, in per cent.

The values are drawn from publication PMC11513923, “Discovery of ZLC491 as a Potent, Selective, and Orally Bioavailable CDK12/13 PROTAC Degrader” (Journal of Medicinal Chemistry, 2024).
